The values below come from PMC11790958, “Molecular mechanism of condensin I activation by KIF4A” (The EMBO Journal, 2024).

The subject of experiment [1] is CI NdelH, D2delC. Description: Fluorescence polarisation competition assay, 5-FAM NCAPH peptide and CI NdelH, D2delC. The settings on record: 100 nM 5-FAM-NCAPH55-77 with 4 μM CID2ΔC,NΔH, 100 μM competing peptide; listed as KIF4a peptide. It counts as binding, human. The procedure:
FP competition assays were performed for NCAPD2 peptide, using a fixed concentration of 100 nM of F-NCAPD2-C1376-1398 and 6 μM of NCAPG, in the presence or absence of 10 μM KIF4A WT1206-1228 or KIF4A Mut1206-1228 peptide. Similar assays were performed for NCAPH2 peptide, using a fixed concentration of 100 nM of F-N-NCAPH55-77 and 4 μM CI NdelH, D2delC, in the presence or absence of 100 μM of KIF4A WT1206-1228 or KIF4A Mut1206-1228 peptide.
Background was determined by measuring 100 nM of F-NCAPD2-C1376-1398 or F-N-NCAPH55-77 in the presence of peptide buffer (20 mM HEPES pH 8), KIF4A WT1206-1228 or KIF4A Mut1206-1228 peptide, and subtracted from each measurement. Assay was performed with three technical repeats, setting up a new plate with distinct protein aliquot each time, reading the plate three times to ensure equilibrium. Data analysed and plotted using GraphPad Prism.

In experiment [2] the test system is condensin I. Nature of the experiment: ATPase activity assay (EnzCheck phosphate assay), basal. Type of experiment: biochemical, human. Particulars: 50 μM peptide, 3 repeats. The procedure: ATPase assays were performed based on the method described previously (Voulgaris and Gligoris, [2019]) using the EnzCheck phosphate assay kit (Invitrogen). Condensin I complexes were used at a final concentration of 50 nM, while HAWK subunits were used at 100 nM and peptides were used at 50 μM. Basal ATPase assays were performed with final salt concentration of 100 mM KCl. DNA titrations were performed with 50 bp dsDNA annealed by heating to 98 degrees and slowly cooling in annealing buffer (10 mM Tris pH 7.5, 50 mM NaCl, 1 mM EDTA).
Plate was read with a POLARstar Omega plate reader (BMG).

Experiment [3] has as its system condensin I. Description: Single-molecule loop extrusion assay, fraction of looped DNA. It counts as biochemical, human. The settings on record: for fraction of looped DNA: 0.5 nM condensin I WT, peptide at 1000x. The procedure:
(§1) Real-time imaging of the loop extrusion by condensin I was carried out in the aforementioned flow cells as follows. The channel was washed with T50 buffer (40 mM Tris-HCl pH 8.0, 50 mM NaCl, 0.2 mM EDTA), incubated with 1 µM Streptavidin in T50 buffer for 2 min and incubated with 5 mg/ml BSA in T50 buffer for 5 min to further reduce unspecific binding of proteins to the surface. The excess Streptavidin and BSA were washed thoroughly with T50 buffer. Lambda DNA biotinylated at both ends was introduced to the channel at a flow rate of 2 µl/min facilitating surface attachment through the streptavidin–biotin binding. The flow was adjusted and kept constant with a syringe pump attached to the outlet of the flow cell. Excess DNA was washed thoroughly with T50 buffer.
The surface attached DNA molecules were imaged in the imaging buffer (40 mM Tris-HCl pH 7.5, 2 mM Trolox, 30 mM D-glucose, 50 mM Potassium Glutamate (L-Glutamic acid monopotassium salt monohydrate), 2.5 mM MgCl2, 1 mg/ml BSA, 1 mM TCEP, 2.5 mM ATP, 100 nM Sytox Orange, 30 mg/ml Glucose Oxidase (15 U/ml), 20 mg/ml Catalase (1000 U/ml)). The imaging buffer supplied with used condensin I variant was introduced into the channel at a flow rate of 10 µl/min for 100 s and the flow was stopped afterward. For the activity assay comparing condensin I WT and condensin I ΔNCAPG 1 nM of protein, for the activity assay comparing condensin I WT and condensin I WT supplied with KIF4A peptide 0.5 nM of protein and 1000× of the KIF4A peptide, for the analysis of loop extrusion rate 0.75 nM–3 nM of protein (in the case of condensin I WT supplied with KIF4A peptide, correspondingly 1000× of KIF4A peptide) was used.
Region of interests (ROIs) containing a single Lambda DNA molecule were chosen manually and annotated using the tools provided by the Python package Napari. For a single loop extrusion experiment, a field of contains ~100–200 DNA strands. Only the strands that were tethered at both ends from the beginning to the end of the data acquisition were considered for the analysis. Each of the DNA strands were manually analysed whether they form at least one loop during an acquisition time of 1000 s, including the initial 100 s of flow. The “fraction of looped DNA” (Fig. 4B,C) was defined as the ratio of the number of the DNA strands which form at least one loop to the total number of DNA strands. This quantity was taken as a measure for the activity of the protein. […] (For 1 nM condensin I WT 4, for 1 nM condensin I ΔNCAPG 10, for 0.5 nM condensin I WT 3, For 0.5 nM condensin I WT supplied with 0.5 µM KIF4A three independent experiments were performed and analysed.) The error bars in the Fig. 4 are given by the standard deviation of these datasets. […]

For experiment [4], the system named is condensin I. Description: Single-molecule loop extrusion assay, loop extrusion rate. Type of experiment: biochemical, human. Particulars: without flow, 0.75 nM-3 nM protein, peptide at 1000x. The procedure: as §1, with “The flow was adjusted and kept constant with a syringe pump attached to the outlet of the flow cell. Excess DNA was washed thoroughly with T50 buffer.” left out
ROIs with a DNA strand that formed a loop were cropped and saved in TIFF format for further analysis. […] The kymographs were built by summing the fluorescence intensity for 11 pixels along the line centred around the DNA axis from the median filtered images. […]
For the determination of the loop extrusion rate, each line in the kymograph was split into three regions: “Up”, “Loop” and “Down” (Fig. 4D). For this, first the loop region was determined as follows: Using the “find_peaks” function from the package signal from the Python module scipy local intensity maxima in each line of the kymograph was determined. […] The loop extrusion rate in Fig. 4G was determined by fitting a linear function f(x) = kx + c to the initial 5 s of the loop growth curve. […]

With “PGKKKKRALASNTSFFSGCSPIE [KIF4A1206-1228, KIF4A SLiM peptide, residues 1206-1228, unlabelled]”, in experiment [1], the “FP signal on addition of competing peptide” value is listed as ~ 20 mP. In addition, the “effect of peptide on ATPase activity of CI” value in experiment [2] (50 nM CI) is reported as “small but significant increase”. For the same sequence, the “effect of peptide on ATPase rate of CINΔH” value in experiment [2] (50 nM CINΔH) is on record as “no additional stimulation”. The “effect of peptide on ATPase rate of CINΔH,D3ΔC” value in experiment [2] (50 nM CINΔH,D3ΔC) was “no additional stimulation”. Also, the “fraction of looped DNA” value in experiment [3] (experiment 1) was 0.9481; in experiment [3] (experiment 2), 1; in experiment [3] (experiment 3), 0.9388. Moreover, the “tethers having DNA loops” value in experiment [3] (0.5 nM condensin I, with or without 0.5 μM KIF4A1206-1228 peptide, 1000 s acquisition, mean of n = 3 experiments) is given as ~ 96%. The “loop extrusion rate compared to CIWT” value in experiment [4] is recorded as “no significant difference”.
